# Legend:
# BE(2)-M17 (M17) cells = assay: Method I: Measurement of Fe efflux from cells (57Fe-loaded, ICP-MS of media); format: cell-based, human; details: M17 cells loaded with 20 μM 57Fe, compound 20 μM, 2 h; for activation at 20 µM: Homo sapiens, read-out: Fe-Efflux (% increase of Fe in media relative to cell media in the absence of the compound)
# Procedure: Method I: Measurement of Fe Efflux from Cells
# Compounds of the current invention were assessed for their ability to efflux iron (Fe) from a cell using the following protocol.
# The human neuroblastoma line BE(2)-M17 (M17) cell cultures were acquired from Sigma Aldrich (Catalogue #: 95011816). M17 Cells were maintained in Opti-MEM reduced serum media supplemented with 10% fetal bovine serum (Bovogen, SFBSF) and passaged twice weekly. Cells were cultured at 37° C. in the presence of 5% CO2. Culture supplies were sourced from Thermo Fisher unless otherwise stated.
# A solution of ^57Fe cold isotope was prepared by dissolving ^57Fe metal (>95% enrichment, Trace Sciences International) in concentrated HCl to give a final concentration of 573 mM. From this master solution, a 10 mM working solution was prepared in sterile water. The working solution was used within two months of preparation.
# M17 cells were loaded with iron initially by seeding into 48-well plates at a density of 0.15×10^6 cells per well in 0.5 mL media. After 48 h, old media was discarded. Fresh media was supplemented with 20 μM ^57Fe isotope, from the 10 mM ^57Fe working solution. Cells received 0.2 mL of this ^57Fe enriched media and were returned to the incubator for 20 h. The ability of experimental compounds to efflux iron was determined by the dissolution of compounds in DMSO and diluted in Hanks' Balanced Salt Solution (HBSS) for treatment of M17 cells. After ^57Fe incubation, cells were rinsed twice with HBSS and treated with 0.15 mL trial compound for 2 h at a concentration of 20 μM. All assays included a relevant vehicle (0.4%-0.8% DMSO) as well as a positive control (20 μM). Following the treatment period, 0.1 mL of media was collected from cells and the extracellular ^57Fe content was analysed via inductively coupled mass spectrometry (ICP-MS, Agilent 7700x series instrument).
# To perform this protocol the following supplies were purchased from Sigma Aldrich: anhydrous dimethyl sulfoxide (DMSO, Catalogue #: 276855), Hanks' Balanced Salt Solution supplemented with 20 mM HEPES and 4.2 mM Sodium Bicarbonate (HBSS, pH: 7.4, Catalogue #: H1387).
# After 2 h the Fe levels in the media were measured and the increase determined as a percentage increase relative to the cell media in the absence of the compound.
# Representative data is provided in Table 13 where the % Fe efflux for the specified compounds of the invention lie in the following ranges: A<30%, B 30-100%, C 100-150%; D>150%.
# phospho-GSK-3β = assay: GSK 3b assay: Zn ionophore-enhanced phosphorylation of GSK-3β (AlphaScreen SureFire Phospho-GSK 3β (Ser9) kit) in SH-SY5Y cells; format: cell-based, human; details: test compound 2 μM + ZnCl2 5 μM, 2 h at 37° C.
# Procedure: The phosphorylation of GSK-3β is enhanced when Zn is imported into a cell by a Zn ionophore. This property was measured for the compounds of the current invention and the data presented relative to the know Zn ionophore PBT2 using the following protocol.
# The human neuroblastoma SH-SY5Y cells were obtained from Cell bank Australia (Catalogue number: 94030304). SH-SY5Y cell culture was maintained in DMEM/F12+15% FBS inside an incubator at 37° C. in the presence of 5% CO2. The cells were sub-cultured once a week and the media exchanged once during the week. Cells for the assay were plated at a density of 60,000 cells/well.
# Stock solutions of the samples were prepared as a 5 mM stock in DMSO and a stock solution of 1 mM ZnCl2/3 mM Glutamic acid was prepared in water. Immediately before use the compounds were diluted 1:10 with water before being added to Locke's buffer in a treatment tube. Samples were subsequently treated with either distilled water or the ZnCl2/Glutamic acid solution to yield a treatment solution which has a final concentration of the test compound at 2 μM+/−ZnCl2 at 5 μM.
# The culture media was aspirated from the wells and the media replaced with the treatment solution prepared above. In addition to the relative standard (PBT2+/−ZnCl2), control wells were also included consisting of +/−ZnCl2 at 5 μM with all treatments done in triplicate. The plate was incubated at 37° C. with the treatment solution for 2 h after which time the wells were aspirated and washed with sterile PBS.
# Measurement of the change of phospho-GSK-3β was determined using an AlphaScreen® SureFire® Phospho-GSK […] (Ser9) Kit with the cells being processed as per the manufacturer's instructions using an initial incubation of 2 h/24° C. and a final incubation of 16 h/24° C.
# The fluorescence was measured on an Enspire plate reader. […] Representative data is presented in Table 12 using the following ranges: A<50%, B 50-<100%, C 100-<150%, D>150%.
Compound,activation at 20 µM (BE(2)-M17 (M17) cells),GSK-Zn (signal as % of the positive standard PBT2+ZnCl2) (phospho-GSK-3β),Fe-Efflux (% increase of Fe in media relative to cell media in the absence of the compound) (BE(2)-M17 (M17) cells)
C/C(=N\NC(=O)c1snnc1C)c1ncccn1 [Compound 48],> 150%,C (C 100-<150%),–
CCOc1ccccc1C(=O)N/N=C1\CCCc2cccnc21 [Compound 4],30 to 100%,A (A<50%),–
O=C(N/N=C1\CCCc2cccnc21)c1ccccc1OCCN1CCCCC1 [Compound 40],> 150%,–,–
O=C(N/N=C1\CCCc2cccnc21)c1ccccc1Cl [Compound 15],> 150%,D (D>150%),–
Cc1cc(C(=O)N/N=C2\CCCc3cccnc32)no1 [Compound 33],> 150%,–,–
COc1ccccc1C(=O)N/N=C(\C)c1cc(C)ccn1 [Compound 55],30 to 100%,–,–
O=C(N/N=C1\CCCc2cccnc21)c1ccccn1 [Compound 2],100 to 150%,A (A<50%),–
O=C(N/N=C/c1cn2ccccc2n1)c1cc2ccccc2s1 [Compound 138],< 30%,–,–
COc1cccc(C(=O)N/N=C2\CCCc3cccnc32)c1 [Compound 6],< 30%,A (A<50%),–
C/C(=N\NC(=O)c1cc2c(s1)-c1ccccc1OC2)c1nc(C)cs1 [Compound 101],< 30%,–,–
COc1ccc(C(=O)N/N=C2\CCCc3cccnc32)cc1 [Compound 9],30 to 100%,A (A<50%),–
C/C(=N\NC(=O)c1snnc1C)c1nccnc1C [Compound 57],100 to 150%,–,–
O=C(N/N=C1\CCCc2cccnc21)c1ccccc1 [Compound 10],30 to 100%,B (B 50-<100%),–
"O=C(N/N=C1\CCOc2cccnc21)c1cccnc1 [Compound 171, (E)-N′-(2,3-dihydro-4H-pyrano[3,2-b]pyridin-4-ylidene)nicotinohydrazide]",< 30%,–,–
CCOC(=O)C1CCc2cccnc2/C1=N/NC(=O)c1snnc1C (centres unmarked) [Compound 31],30 to 100%,–,–
Cc1ccc(C(=O)N/N=C/c2nccn2C)cn1 [Compound 117],< 30%,–,–
COc1ccc(C(=O)N/N=C2\CCCc3cccnc32)cc1OC [Compound 7],30 to 100%,A (A<50%),–

Compound,activation at 20 µM (BE(2)-M17 (M17) cells),GSK-Zn (signal as % of the positive standard PBT2+ZnCl2) (phospho-GSK-3β),Fe-Efflux (% increase of Fe in media relative to cell media in the absence of the compound) (BE(2)-M17 (M17) cells)
"O=C(N/N=C1\CCCc2cccnc21)c1cccnc1 [Compound 1, (E)-N′-(6,7-Dihydroquinolin-8(5H)-ylidene)nicotinohydrazide]",> 150%,A (A<50%),–
Cc1nnsc1C(=O)N/N=C1\CCCc2cccnc21 [Compound 23],> 150%,C (C 100-<150%),–
Cc1nnsc1C(=O)N/N=C(/c1ncccn1)C(C)C [Compound 52],30 to 100%,B (B 50-<100%),–
C/C(=N\NC(=O)c1cccc(C)c1)c1ncccn1 [Compound 49],> 150%,B (B 50-<100%),–
C/C(=N\NC(=O)c1snnc1C)c1ccc2ccccc2n1 [Compound 91],30 to 100%,C (C 100-<150%),–
CN(C)CCOc1ccccc1C(=O)N/N=C1\CCCc2cccnc21.Cl [Compound 39],> 150%,A (A<50%),–
COc1cccc(C(=O)N/N=C(/c2ncccn2)C(C)C)c1 [Compound 50],< 30%,C (C 100-<150%),–
O=C(N/N=C1\CCCc2cccnc21)c1ccccc1OCCCN1CCCCC1 [Compound 42],> 150%,–,–
Cc1cccc(C(=NNC(=O)c2ccccc2C)c2cccc(C)n2)n1 [Compound 122],< 30%,A (A<50%),–
COc1cccc(C(=O)N/N=C(\C)c2ncccn2)c1 [Compound 47],30 to 100%,C (C 100-<150%),–
O=C(N/N=C1\CCCc2cccnc21)c1ccncc1 [Compound 3],> 150%,A (A<50%),–
COc1ccccc1C(=O)N/N=C1\CCCc2cccnc21 [Compound 8],100 to 150%,A (A<50%),–
"COC(=O)CN(/N=C(\C)c1ccccn1)C(=O)c1cc2ccccc2s1 [Compound 147, (E)-Methyl 2-(1-(benzo[b]thiophene-2-carbonyl)-2-(1-(pyridin-2-yl)ethylidene) hydrazinyl) Acetate]",–,–,A (A<30%)
Cc1nc(C)c(C(=O)N/N=C2\CCCc3cccnc32)s1 [Compound 32],100 to 150%,–,–
Cc1nnsc1C(=O)N/N=C1\CCOc2cccnc21 [Compound 172],100 to 150%,–,–
C/C(=N\NC(=O)c1cccc(C)c1)c1nccnc1C [Compound 58],< 30%,–,–
O=C(N/N=C1\CCOc2cccnc21)c1cccs1 [Compound 178],100 to 150%,–,–
